The text below walks through data of US8765802B2, “Kinase inhibitors, compositions thereof, and methods of use therewith” (Provid Pharmaceuticals, Inc., priority 2007, dated 2014).

Structures are written as SMILES. A value given as a limit tells only on which side of the number the result lay.

One test relates to OVCAR-4 cells. In words: Combination with camptothecin in OVCAR-4 cells (MTS growth inhibition). It is filed as cell-based, human. The following applies: 48 h, MTS staining, 40 combinations. The protocol: FIG. 4. Compound 18 is synergistic with camptothecin (CPT) in OVCAR-4 cells. OVCAR-4 cells were treated with either compound 18 or CPT as single agents in 96 well tissue culture plates. In addition, the cells were exposed to 40 combinations of compound 18 and CPT. The drug treatments were for 48 hours and the cells were then subjected to MTS staining to determine the growth inhibitory effect. The graph represents a 3-dimensional plot of the MTS data obtained. The upper, light gray surface represents a theoretical surface of additivity that was generated from dose response curves of compound 18 alone and CPT alone. The lower, dark grey surface depicts the surface of the combination of compound 18 and CPT that was generated from data obtained in the MTS assay (shown by the blue circles). Data points lying under the green additivity surface are deemed to synergistic combinations. The bar graph on the right is a 2-dimensional representation of 1 combination of 11 μM compound 18 and 6.25 μM CPT taken from the 3-D model.

Another test relates to HDMX in MCF7 cells. Nature of the test: HDMX degradation in MCF7 cells following DNA damage (Western blot). The following applies: varying concentrations 2.5 h, then 1 μM topotecan 4 h or 10 Gy IR + 4 h. The class given is cell-based. The method, then: FIG. 2. […] MCF7 cells were treated in the absence (control) or presence of compound 18 at varying concentrations for 2.5 hours. The cells were then exposed to either 1 μM topotecan (TPT) for 4 hours or they were exposed to 10 Gy IR and incubated for 4 hours. Whole cell extracts were made and Western blotting was performed to detect HDMX. The levels of HDMX were quantified from the blots and normalized to actin. The normalized levels of HDMX are depicted as bar graphs under the blots.

A further test addresses T1, Chk2 (Homo sapiens, UniProt O96017).
T1 construct: made in house; host or cells: E. coli BL21 Star (Invitrogen)
In words: Chk2 inhibitor IMAP assay (high-throughput Chk2 screening assay). The following applies: IMAP fluorescence polarization assay, 10 μM ATP. The class given is biochemical. The method, then:
Compounds set forth in Table 1 were tested in the Chk2 inhibitor IMAP assay described herein in Example 6.84. […] The letters given for the Chk2 EC50 values in Table 1 represent the following ranges: A=<100 nM; B=100-300 nM; C=300-1000 nM; D=1-10 μM; and E>10 μM.
Compounds can be screened for Chk2 inhibitory activity using a high-throughput screening assay based in the immobilized metal ion affinity-based fluorescence polarization (IMAP) assay developed by Molecular Devices. This assay is based on the high affinity binding of phosphate by immobilized metal (MIII) coordination complexes on nanoparticles. A fluorescein-labeled peptide substrate is used as the substrate for the kinase activity of Chk2 in the assay. The IMAP binding reagent stops the kinase reaction. The binding of the binding reagent results in a change in the rate of molecular motion of the peptide and causes an increase in the fluorescence polarization value observed for the fluorescein label attached to the end of the peptide. Thus, inhibition of Chk2 would result in a decrease in fluorescence polarization compared to control.
A specific protocol for screening Compounds for Chk2 inhibitory activity follows.
A Compound is supplied at 1 mM in 0.5 μl DMSO on 384 well plates (such as Greiner or Corning). After thawing, 5 μl DMSO is added to the drug plate. The drug plate is then incubated for 10 minutes to solubilize the Compound. An additional 19.5 μl of reaction buffer (10× stock prepared using 100 mM Tris-HCl, 100 mM MgCl2, 1% BSA, pH 7.2, stored at 4° C.)+1 mM DDT is added to bring the Compound to 4× final concentration. A positive control is also prepared at 4× final concentration. The following control wells are used: less enzyme control (all reagents except enzyme; 5 μl/well), less Compound control (all reagents except Compound; 5 μl/well), positive control (all reagents plus staurosporine at a final concentration of 5 μM; 5 μl/well).
Reagents are then added in the following order to give the following final concentration: 2.5 μl ATP/Chk2tide (Molecular Devices) (10 μM/100 nM final concentration), 1.25 μl Compound (5 μM final concentration inf 5.5% DMSO), and 1.25 μl Chk2 (1:500, 2.4 μg/mL final concentration).
Plates are covered and incubated at room temperature for 60 minutes.
IMAP binding reagent (Molecular Devices) is diluted 1:400 into binding buffer (Molecular Devices). 15 μl of this solution is then added to all wells and the plates are covered and incubated for 30 minutes.
Plates are read using a Tecan Ultra under the fluorescence polarization mode. Gain is set to the less enzyme and less Compound wells for each plate. Excitation 485 nm, emmission 535 nm, Z position 12519 and flashes 5 are used as settings. Raw data from the Tecan reader is imported into an access database for analysis.

Another test deals with mouse thymocytes. Nature of the test: IR-induced apoptosis in mouse thymocytes (PI staining, FACS). It is filed as cell-based. The following applies: thymocytes from Chk2+/+ or Chk2-/- mice, 1 μM for 1 h, 5 Gy IR, 16 h. The method, then: FIG. 3. […] Thymocytes were isolated from Chk2+/+ or Chk2−/− mice by mechanical disaggregation. The isolated thymocytes were treated in the absence or presence of 1 μM compound 18 or ref^λ (J. Wu et al, Bioorganic and Medicinal Chemistry letters, 2007, 17(1), 172, [N-isobutyl analog of compound 7]) for 1 hour. The cells were then exposed to 5 Gy IR and incubated for 16 hours. The cells were then washed in PBS and fixed in ethanol. Propidium isodide (PI) was added in the presence of RNAse A before being subjected to flow cytometry. The graphs show FACS analysis of the PI stained cells.

T1 sequence (O96017 whole entry): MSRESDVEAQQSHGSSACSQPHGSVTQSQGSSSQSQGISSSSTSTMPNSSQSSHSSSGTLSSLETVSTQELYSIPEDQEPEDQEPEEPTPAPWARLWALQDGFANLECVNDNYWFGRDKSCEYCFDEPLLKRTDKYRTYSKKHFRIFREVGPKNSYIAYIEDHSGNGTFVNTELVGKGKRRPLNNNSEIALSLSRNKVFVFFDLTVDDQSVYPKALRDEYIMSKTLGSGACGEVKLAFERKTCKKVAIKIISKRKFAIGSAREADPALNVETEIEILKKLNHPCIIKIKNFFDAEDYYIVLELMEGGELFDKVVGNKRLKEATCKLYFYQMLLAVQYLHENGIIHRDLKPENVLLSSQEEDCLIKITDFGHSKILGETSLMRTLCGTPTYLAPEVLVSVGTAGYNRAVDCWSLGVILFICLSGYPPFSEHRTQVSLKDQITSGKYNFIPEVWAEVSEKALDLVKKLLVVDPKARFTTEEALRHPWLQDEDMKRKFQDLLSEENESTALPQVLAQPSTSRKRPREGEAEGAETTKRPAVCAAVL

Take `C/C(=N\NC(=N)N)c1ccc(NC(=O)c2cc3cccc([N+](=O)[O-])c3[nH]2)cc1` [Compound 18]: the “Combination effect with camptothecin (CPT)” value with OVCAR-4 cells was “synergistic”. Moreover, in the test on HDMX in MCF7 cells, the “Effect on HDMX degradation following DNA damage” value is given as “Abrogation of HDMX degradation”. The molecule further returned an EC50 at Chk2 of less than 100 nM. Besides, the “Effect on IR-induced apoptosis” value in the test with mouse thymocytes is “abrogation of IR-induced apoptosis”.
Molecule `CC(=NNC(N)=NO)c1ccc(NC(=O)Nc2ccc(C(C)=NNC(N)=NO)cc2)cc1` [Compound 116] showed an EC50 on Chk2 of less than 100 nM.
Still for that read-out and setting: under `C/C(=N\NC(=N)N)c1ccc(NC(=O)c2cc3cc(C(N)=O)ccc3[nH]2)cc1` [Compound 27] stands 100 to 300 nM.
Still for that read-out and setting: the result for `C/C(=N\NC(=N)N)c1ccc(NC(=O)c2cc3cc(Cl)ccc3[nH]2)cc1` [Compound 67] reads 1000 to 10000 nM.
Still for that read-out and setting: under `C/C(=N\NC(=N)N)c1ccc(NC(=O)Nc2ccc(NC(=O)Nc3ccc(/C(C)=N/NC(=N)N)cc3)cc2)cc1` [Compound 39] stands less than 100 nM.
Regarding `C/C(=N\NC(=N)N)c1ccc(NC(=O)c2ccc3c(c2)CCC/C3=N\NC(=N)N)cc1` [Compound 79], on Chk2, the EC50 was 1000 to 10000 nM.
On the same count and under the same terms, the result for `COc1ccc2cc(C(=O)Nc3ccc(/C(C)=N/NC(=N)N)cc3)[nH]c2c1` [Compound 74] reads 300 to 1000 nM.
Molecule `C/C(=N\N/C(=N\N)NN)c1ccc(NC(=O)Nc2ccc(/C(C)=N/N/C(=N\N)NN)cc2)cc1` [Compound 65] gave an EC50 on Chk2 of 100 to 300 nM.
Still for that read-out and setting: under `COC(=O)c1ccc(NC(=O)Nc2ccc(/C(C)=N/NC(=N)N)cc2)cc1` [Compound 56] stands 1000 to 10000 nM; under `COc1ccc2[nH]c(C(=O)Nc3ccc4c(c3)CCC/C4=N\NC(=N)N)cc2c1` [Compound 105], 300 to 1000 nM.
For `CCCOc1ccc2cc(C(=O)Nc3ccc(/C(C)=N/NC(=N)N)cc3)[nH]c2c1` [Compound 90], the EC50 on Chk2 is 1000 to 10000 nM.
On Chk2, `C/C(=N/NC(=N)N)c1ccc(NC(=O)Nc2ccc(/C(C)=N/N=C(\N)c3ccccn3)cc2)cc1` [Compound 14] had an EC50 of 300 to 1000 nM.
`C/C(=N\NC(=N)N)c1ccc(NC(=O)c2cc3ccccc3o2)cc1` [Compound 52] registered an EC50 on Chk2 of 1000 to 10000 nM.
On the same count and under the same terms, under `C/C(=N\NC(=N)N)c1ccc(NC(=O)Nc2ccc(/C(C)=N/NC3=NCCN3)cc2)cc1` [Compound 16] stands less than 100 nM; under `C/C(=N\NC(=N)N)c1ccc2[nH]c(C(=O)Nc3cccc4[nH]ccc34)cc2c1` [Compound 108], 1000 to 10000 nM.

By EC50 is commonly meant the midpoint of the concentration-response curve. Read a high EC50 as a less potent agent.
